From PubChem BioAssay (NCI)
“And” between values parts separate entries of the source, which are not always exact repeats. Equal values may be shown once.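 Method: 48-hour compound exposure of cells in 96-well plates, five concentrations, linear interpolation of endpoints. The concentration for 50% growth inhibition is given as GI50. TGI is the concentration that stops growth completely.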

Experiments:
P388/ADR leukemia = assay: NCI tumour cell line growth inhibition, 48 h
P388 leukemia = assay: NCI tumour cell line growth inhibition, 48 h

Row | Structure (SMILES) | TGI (P388/ADR leukemia) | TGI (P388 leukemia) | GI50 (P388/ADR leukemia) [µM] | GI50 (P388 leukemia) [µM]
1 | S=c1nc[nH]c2nc[nH]c12 | 548 µM | 242 µM |  | 
2 | COc1ccc2[nH]c3c(C)c4cc[n+](C)cc4c(C)c3c2c1 | > 56.2 µM and > 75 µM and 125 µM | 19.1 µM and 10.8 µM and 16.5 µM | 20.8 | 1.78
3 | COC1=C(C)C(=O)C2=C(C1=O)C(CO)N1C(C#N)C3CC4C(C1C2N1CCOC41)N3C (configuration not stated) | > 100 µM |  |  | 
